Tests used:
adult rats [1] = assay: forced swim test (FST), depression-like behavior; assay type: in vivo
Experimental: The NCAM peptide mimetic FGLm (5 μg) or vehicle was administered intracerebroventricularly (i.c.v.) to adult rats. […]
FGLL (10 mg/kg, s.c.) or control was also administered to adult rats via injection every 24 hours for 16 days. Animals were tested for locomotion on Day 13, tested for anxiety-like behavior with the EPM on Day 14, tested for depression-like behavior with the FST on Days 15 and 16, and sacrificed on Day 17. […]

adult rats [2] = assay: elevated plus maze (EPM), anxiety-like behavior; assay type: in vivo; conditions: 1, 5 or 10 mg/kg s.c., injected 30 minutes before test
Experimental: The NCAM peptide mimetic FGLL (1 mg/kg, 5 mg/kg, or 10 mg/kg) or control was administered subcutaneously (s.c.) to adult rats. For the elevated plus maze (EPM), which measures anxiety-like behavior, animals were injected 30 minutes before the test. For the FST, which measures depression-like behavior, animals were injected 1 hour and 5 hours after Day 1 and 30 minutes before Day 2.
The NCAM peptide mimetic plannexin (10 mg/kg) or vehicle control was acutely administered intraperitoneally (i.p.) to adult rats.
Plannexin (10 mg/kg, i.p.) or control was also chronically administered to adult rats via injection every 48 hours on odd days. Animals were tested for locomotion on Day 13, tested for anxiety-like behavior with the EPM on Day 14, tested for depression-like behavior with the FST on Days 15 and 16, and sacrificed on Day 17.

[3] = 10 mg/kg s.c. every 24 hours for 16 days, FST on Days 15 and 16

Compound	effect on depression as measured by the FST (adult rats [1]; 5 μg i.c.v., vs vehicle)	immobility in FST (adult rats [1]; 5 μg i.c.v., vs vehicle)	swimming in FST (adult rats [1]; 5 μg i.c.v., vs vehicle)	effect on anxiety as measured by the EPM (adult rats [2])	time spent in the Closed parts of the EPM (adult rats [2]; effect at higher doses)	climbing in FST (adult rats [1]; [3])	effect on depression as measured by the FST (adult rats [1]; [3])	immobility in FST (adult rats [1]; [3])
EVYVVAENQQGKSKA [FGLm, NCAM peptide mimetic]	decreased depression	less immobility	significantly more swimming					
CC(C)[C@H](NC(=O)[C@H](CCC(=O)O)NC(=O)CNCC(=O)N[C@@H](CCC(=O)O)C(=O)N[C@H](C(=O)N[C@H](C(=O)N[C@@H](C)C(=O)N[C@@H](CCC(=O)O)C(=O)N[C@@H](CC(N)=O)C(=O)N[C@@H](CCC(N)=O)C(=O)N[C@@H](CCC(N)=O)C(=O)NCC(=O)N[C@@H](CCCCN)C(=O)N[C@@H](CO)C(=O)N[C@@H](CCCCN)C(=O)N[C@@H](C)C(N)=O)C(C)C)C(C)C)C(=O)N[C@H](C(=O)N[C@@H](C)C(=O)N[C@@H](CCC(=O)O)C(=O)N[C@@H](CC(N)=O)C(=O)N[C@@H](CCC(N)=O)C(=O)N[C@@H](CCC(N)=O)C(=O)NCC(=O)N[C@@H](CCCCN)C(=O)N[C@@H](CO)C(=O)N[C@@H](CCCCN)C(=O)N[C@@H](C)C(N)=O)C(C)C (stereo in doubt) [FGLL]				increased anxiety	significantly increased	significantly more climbing	decreased depression	less immobility

Reference: patent publication US20230055021A1, “METHODS FOR TREATING PSYCHIATRIC DISORDERS OR SYMPTOMS THEREOF USING NCAM PEPTIDE MIMETICS” (The Board of Trustees of the Leland Stanford Junior …, priority 2012, published 2023)
